Assay results taken from patent US12624017B2, “Salt form of isoquinolinone type compound as rock inhibitor and preparation method therefor” (GUANGZHOU OCUSUN OPHTHALMIC BIOTECHNOLOGY CO., LTD., priority 2020, dated 2026).

Experiments:
[1] = system: New Zealand rabbits suffered with acute intraocular hypertension; experiment: Intraocular pressure reduction test in acute intraocular hypertension model; format: in vivo, New Zealand white rabbits; conditions: for Intraocular pressure in left eye: 4 mg/mL group, left eye (solvent only); for Intraocular pressure in right eye: 4 mg/mL, 50 μL, right eye (modelled, dosed)
Source text: Acute intraocular hypertension was induced for rabbits by injection of a viscoelastic agent into the anterior chamber, and the effects of ocular pressure reduction of the compound of formula (I) were inspected by administration of eye drops at different concentrations.
Male New Zealand white rabbits, aged 97 to 127 days, weighted 2.5 to 3.4 kg, purchased from Pizhou Oriental Breeding Co., Ltd.
50 male New Zealand white rabbits were randomly divided into 5 groups according to body weight, 10 rabbits/group. The anterior chambers of the right eyes of animals in Groups 1 to 5 were injected with medical sodium hyaluronate gel in a single dose, 100 μL/eye, to induce ocular hypertension in the animals. In 5 to 15 min after molding, the right eye was administrated dropwise with the solvent, K-115, and the test article (compounds of formula (I) of different concentrations), and the left eye was administrated dropwise with the solvent, 50 μL/eye; and the intraocular pressures of the animals in both eyes were measured before administration, as well as at 2, 4, 6, 8, and 10 h after administration, respectively.

[2] = system: New Zealand rabbits with normal intraocular pressure; experiment: Intraocular pressure reduction, normal intraocular pressure, eye drops in both eyes for 14 days (Operation I); format: in vivo, New Zealand white rabbits; conditions: for Change in intraocular pressure: vs negative control
Source text: An intraocular pressure reduction effect and potential ocular toxicity of the compound of formula (I) were inspected with rabbits with normal intraocular pressure by repeated administration of eye drops for 14 days.
Male New Zealand white rabbits, aged 97 to 127 days, weighted 2.6-3.5 kg, purchased from Pizhou Oriental Breeding Co., Ltd.
The Male New Zealand white rabbits were randomly divided into 7 groups according to body weights, 6 rabbits/group. The animals in Groups 1 to 7 were administrated dropwise with a solvent/control/test article in both eyes in an administration volume of 50 μL/eye, once a day for 14 consecutive days, and the day of first administration was recorded as Day 1. The intraocular pressures of the animals were measured before administration, as well as at 1, 2, 4, 6, 8 and 10 h after administration, respectively. On Days 2 to 14, the intraocular pressures of animals in the K-115 administration group were measured at 1 h after daily administration; and intraocular pressures of the animals in the remaining groups were measured at 4 h after daily administration.

[3] = 4 mg/mL once a day, Day 2, 1 h after daily administration
[4] = 4 mg/mL once a day, Day 3, 1 h after daily administration
[5] = 4 mg/mL once a day, Day 4, 1 h after daily administration
[6] = 4 mg/mL once a day, Day 5, 1 h after daily administration
[7] = 4 mg/mL once a day, Day 6, 1 h after daily administration
[8] = 4 mg/mL once a day, Day 7, 1 h after daily administration
[9] = 4 mg/mL once a day, Day 8, 1 h after daily administration
[10] = 4 mg/mL once a day, Day 9, 1 h after daily administration
[11] = 4 mg/mL once a day, Day 10, 1 h after daily administration
[12] = 4 mg/mL once a day, Day 11, 1 h after daily administration
[13] = 4 mg/mL once a day, Day 12, 1 h after daily administration
[14] = 4 mg/mL once a day, Day 13, 1 h after daily administration
[15] = 4 mg/mL once a day, Day 14, 1 h after daily administration
[16] = 4 mg/mL, Day 1, 1 h after administration
[17] = 4 mg/mL, Day 1, 2 h after administration
[18] = 4 mg/mL, Day 1, 4 h after administration
[19] = 4 mg/mL, Day 1, 6 h after administration
[20] = 4 mg/mL, Day 1, 8 h after administration
[21] = 4 mg/mL, Day 1, 10 h after administration
[22] = 4 mg/mL, Day 1, before administration

SMILES: C[C@H]1CNCCCN1S(=O)(=O)c1cccc2cncc(F)c12 [K-115, reference compound]
- Intraocular pressure in left eye ([1]; 2 h after administration): 6.50 mmHg
- Intraocular pressure in left eye ([1]; 4 h after administration): 8.54 mmHg
- Intraocular pressure in left eye ([1]; 6 h after administration): 11.40 mmHg
- Intraocular pressure in left eye ([1]; 8 h after administration): 13.20 mmHg
- Intraocular pressure in left eye ([1]; 10 h after administration): 13.37 mmHg
- Intraocular pressure in left eye ([1]; before administration): 11.80 mmHg
- Intraocular pressure in right eye ([1]; 2 h after administration): 8.20 mmHg
- Intraocular pressure in right eye ([1]; 4 h after administration): 11.27 mmHg
- Intraocular pressure in right eye ([1]; 6 h after administration): 15.07 mmHg
- Intraocular pressure in right eye ([1]; 8 h after administration): 15.57 mmHg
- Intraocular pressure in right eye ([1]; 10 h after administration): 16.47 mmHg
- Intraocular pressure in right eye ([1]; before administration): 11.77 mmHg
- Average intraocular pressure in both eyes [2, 3]: 6.83 mmHg
- Change in intraocular pressure [2, 3]: 4.25 mmHg
- Average intraocular pressure in both eyes [2, 4]: 6.81 mmHg
- Change in intraocular pressure [2, 4]: 3.58 mmHg
- Average intraocular pressure in both eyes [2, 5]: 6.92 mmHg
- Change in intraocular pressure [2, 5]: 3.69 mmHg
- Average intraocular pressure in both eyes [2, 6]: 6.67 mmHg
- Change in intraocular pressure [2, 6]: 4.3 mmHg
- Average intraocular pressure in both eyes [2, 7]: 6.75 mmHg
- Change in intraocular pressure [2, 7]: 2.56 mmHg
- Average intraocular pressure in both eyes [2, 8]: 7.39 mmHg
- Change in intraocular pressure [2, 8]: 2.67 mmHg
- Average intraocular pressure in both eyes [2, 9]: 7.53 mmHg
- Change in intraocular pressure [2, 9]: 3.78 mmHg
- Average intraocular pressure in both eyes [2, 10]: 7.78 mmHg
- Change in intraocular pressure [2, 10]: 1.66 mmHg
- Average intraocular pressure in both eyes [2, 11]: 7.94 mmHg
- Change in intraocular pressure [2, 11]: 1.81 mmHg
- Average intraocular pressure in both eyes [2, 12]: 7.94 mmHg
- Change in intraocular pressure [2, 12]: 1.75 mmHg
- Average intraocular pressure in both eyes [2, 13]: 7.89 mmHg
- Change in intraocular pressure [2, 13]: 1.64 mmHg
- Average intraocular pressure in both eyes [2, 14]: 8.25 mmHg
- Change in intraocular pressure [2, 14]: 3.14 mmHg
- Average intraocular pressure in both eyes [2, 15]: 8.50 mmHg
- Change in intraocular pressure [2, 15]: 2.47 mmHg
- Average intraocular pressure in both eyes [2, 16]: 7.72 mmHg
- Change in intraocular pressure [2, 16]: 2.59 mmHg
- Average intraocular pressure in both eyes [2, 17]: 9.00 mmHg
- Change in intraocular pressure [2, 17]: 1.97 mmHg
- Average intraocular pressure in both eyes [2, 18]: 9.67 mmHg
- Change in intraocular pressure [2, 18]: 1.64 mmHg
- Average intraocular pressure in both eyes [2, 19]: 10.56 mmHg
- Change in intraocular pressure [2, 19]: 1.38 mmHg
- Average intraocular pressure in both eyes [2, 20]: 10.28 mmHg
- Change in intraocular pressure [2, 20]: 2.69 mmHg
- Average intraocular pressure in both eyes [2, 21]: 12.81 mmHg
- Change in intraocular pressure [2, 21]: 1.61 mmHg
- Average intraocular pressure in both eyes [2, 22]: 10.83 mmHg
- Change in intraocular pressure [2, 22]: −0.94 mmHg
